Our source for the IC50 values is paper PMC6407917, “Identification of GSK3186899/DDD853651 as a Preclinical Development Candidate for the Treatment of Visceral Leishmaniasis” (Journal of Medicinal Chemistry, 2018).

Common to all, as to experiment: biochemical
Holding throughout (set-up): species or system HEK293/K-562/placenta mixed human extract; Kinobeads chemoproteomic competition binding, quantified by TMT LC-MS/MS, dose response up to 20 uM

Test [1] concerns the target ARAF (Homo sapiens, UniProt P10398).
The target of test [2] is AURKB (Homo sapiens, UniProt Q96GD4).
Test [3] concerns the target BMP2K (Homo sapiens, UniProt Q9NSY1).
Test [4] deals with CAMK2B (Homo sapiens, UniProt Q13554).
For test [5], the target named is CDK9 (Homo sapiens, UniProt P50750).
Test [6] addresses EPHA3 (Homo sapiens, UniProt P29320).
Test [7] deals with EPHB2 (Homo sapiens, UniProt P29323).
For test [8], the target named is GAK (Homo sapiens, UniProt O14976).
Test [9] has as its target JAK1 (Homo sapiens, UniProt P23458).
Test [10] deals with KIT (Homo sapiens, UniProt P10721).
The target in test [11] is MAP4K3 (Homo sapiens, UniProt Q8IVH8).
The target in test [12] is MET (Homo sapiens, UniProt P08581).
Test [13] deals with NEK3 (Homo sapiens, UniProt P51956).
Test [14] deals with PDXK (Homo sapiens, UniProt O00764).
In test [15] the target is PIK3C3 (Homo sapiens, UniProt Q8NEB9).
The target in test [16] is PIM1 (Homo sapiens, UniProt P11309).
The target in test [17] is RPS6KA2 (Homo sapiens, UniProt Q15349).
For test [18], the target named is RPS6KA5 (Homo sapiens, UniProt O75582).
For test [19], the target named is SIK1 (Homo sapiens, UniProt P57059).
Test [20] concerns the target TEK (Homo sapiens, UniProt Q02763).
The target in test [21] is YWHAG (Homo sapiens, UniProt P61981).
YWHAG, sequence (P61981 whole entry): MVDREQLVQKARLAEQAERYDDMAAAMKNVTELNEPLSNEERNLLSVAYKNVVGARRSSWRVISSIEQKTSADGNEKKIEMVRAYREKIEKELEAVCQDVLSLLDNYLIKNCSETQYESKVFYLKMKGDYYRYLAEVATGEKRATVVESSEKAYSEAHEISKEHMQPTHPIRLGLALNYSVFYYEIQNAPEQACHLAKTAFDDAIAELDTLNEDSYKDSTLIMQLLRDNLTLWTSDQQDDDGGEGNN

BMP2K, sequence (Q9NSY1 whole entry): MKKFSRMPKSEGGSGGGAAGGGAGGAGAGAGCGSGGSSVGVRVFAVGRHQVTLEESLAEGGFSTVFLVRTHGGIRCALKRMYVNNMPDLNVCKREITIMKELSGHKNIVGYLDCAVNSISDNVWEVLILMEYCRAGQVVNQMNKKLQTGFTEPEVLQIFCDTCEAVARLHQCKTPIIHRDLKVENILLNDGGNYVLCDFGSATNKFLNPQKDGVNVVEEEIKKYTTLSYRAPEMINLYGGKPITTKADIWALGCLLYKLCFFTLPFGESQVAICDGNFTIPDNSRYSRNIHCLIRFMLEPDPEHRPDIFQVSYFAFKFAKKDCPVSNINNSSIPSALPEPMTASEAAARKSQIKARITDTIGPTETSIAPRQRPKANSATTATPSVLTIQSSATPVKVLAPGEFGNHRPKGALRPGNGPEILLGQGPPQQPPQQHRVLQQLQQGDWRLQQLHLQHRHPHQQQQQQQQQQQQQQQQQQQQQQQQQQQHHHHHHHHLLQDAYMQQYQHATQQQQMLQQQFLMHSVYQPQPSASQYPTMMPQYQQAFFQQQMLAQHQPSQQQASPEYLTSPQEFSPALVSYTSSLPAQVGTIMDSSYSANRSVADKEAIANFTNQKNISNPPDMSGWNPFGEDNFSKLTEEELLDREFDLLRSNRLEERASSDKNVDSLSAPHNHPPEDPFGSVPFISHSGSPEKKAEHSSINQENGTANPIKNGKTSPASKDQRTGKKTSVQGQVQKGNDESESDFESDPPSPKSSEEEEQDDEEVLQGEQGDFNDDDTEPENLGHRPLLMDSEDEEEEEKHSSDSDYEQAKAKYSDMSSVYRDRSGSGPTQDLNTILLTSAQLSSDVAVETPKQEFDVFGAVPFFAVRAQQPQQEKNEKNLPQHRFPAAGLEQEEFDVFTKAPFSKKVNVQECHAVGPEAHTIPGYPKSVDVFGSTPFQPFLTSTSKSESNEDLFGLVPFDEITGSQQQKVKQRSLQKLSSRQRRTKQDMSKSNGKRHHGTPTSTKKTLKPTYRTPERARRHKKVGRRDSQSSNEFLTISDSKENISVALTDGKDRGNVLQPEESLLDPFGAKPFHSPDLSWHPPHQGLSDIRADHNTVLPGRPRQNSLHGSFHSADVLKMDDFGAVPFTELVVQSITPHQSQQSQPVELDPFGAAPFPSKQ
PIM1, sequence (P11309 whole entry): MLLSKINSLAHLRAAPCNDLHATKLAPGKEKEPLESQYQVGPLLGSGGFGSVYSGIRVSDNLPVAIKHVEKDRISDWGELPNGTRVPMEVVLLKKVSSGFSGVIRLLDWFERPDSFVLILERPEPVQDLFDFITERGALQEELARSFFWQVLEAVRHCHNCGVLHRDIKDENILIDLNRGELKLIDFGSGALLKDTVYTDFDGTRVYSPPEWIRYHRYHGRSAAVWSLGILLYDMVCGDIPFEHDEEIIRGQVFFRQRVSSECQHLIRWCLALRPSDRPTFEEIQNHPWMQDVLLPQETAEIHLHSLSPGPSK
SIK1, sequence (P57059 whole entry): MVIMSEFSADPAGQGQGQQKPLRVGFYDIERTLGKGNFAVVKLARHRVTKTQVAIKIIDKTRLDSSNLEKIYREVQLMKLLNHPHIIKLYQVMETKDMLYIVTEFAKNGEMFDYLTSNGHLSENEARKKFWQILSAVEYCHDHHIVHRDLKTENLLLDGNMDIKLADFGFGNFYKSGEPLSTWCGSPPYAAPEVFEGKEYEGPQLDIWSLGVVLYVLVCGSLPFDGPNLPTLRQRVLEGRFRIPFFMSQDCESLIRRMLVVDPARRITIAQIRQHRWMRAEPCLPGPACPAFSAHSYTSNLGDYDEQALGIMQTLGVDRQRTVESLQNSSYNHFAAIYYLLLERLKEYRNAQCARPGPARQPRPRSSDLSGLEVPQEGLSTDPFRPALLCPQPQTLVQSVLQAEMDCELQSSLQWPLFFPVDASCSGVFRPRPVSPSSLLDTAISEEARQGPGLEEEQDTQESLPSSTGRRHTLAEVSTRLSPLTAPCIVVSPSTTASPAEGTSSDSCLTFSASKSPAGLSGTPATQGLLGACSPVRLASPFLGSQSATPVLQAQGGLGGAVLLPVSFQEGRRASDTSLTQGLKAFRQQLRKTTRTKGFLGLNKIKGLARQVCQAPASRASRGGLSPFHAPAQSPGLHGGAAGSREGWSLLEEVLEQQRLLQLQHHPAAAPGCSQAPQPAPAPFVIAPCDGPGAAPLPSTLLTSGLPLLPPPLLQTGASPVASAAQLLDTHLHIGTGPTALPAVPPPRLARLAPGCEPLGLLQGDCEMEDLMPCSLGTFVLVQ
AURKB, sequence (Q96GD4 whole entry): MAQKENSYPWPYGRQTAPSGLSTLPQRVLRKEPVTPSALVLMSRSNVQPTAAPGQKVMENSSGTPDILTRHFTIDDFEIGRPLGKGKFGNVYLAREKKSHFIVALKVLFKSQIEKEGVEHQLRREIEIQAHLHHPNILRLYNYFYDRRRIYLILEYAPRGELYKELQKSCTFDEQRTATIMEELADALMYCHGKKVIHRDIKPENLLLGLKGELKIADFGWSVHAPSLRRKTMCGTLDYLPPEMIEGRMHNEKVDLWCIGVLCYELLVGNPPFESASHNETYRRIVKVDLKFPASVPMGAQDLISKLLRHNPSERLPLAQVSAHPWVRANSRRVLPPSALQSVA
NEK3, sequence (P51956 whole entry): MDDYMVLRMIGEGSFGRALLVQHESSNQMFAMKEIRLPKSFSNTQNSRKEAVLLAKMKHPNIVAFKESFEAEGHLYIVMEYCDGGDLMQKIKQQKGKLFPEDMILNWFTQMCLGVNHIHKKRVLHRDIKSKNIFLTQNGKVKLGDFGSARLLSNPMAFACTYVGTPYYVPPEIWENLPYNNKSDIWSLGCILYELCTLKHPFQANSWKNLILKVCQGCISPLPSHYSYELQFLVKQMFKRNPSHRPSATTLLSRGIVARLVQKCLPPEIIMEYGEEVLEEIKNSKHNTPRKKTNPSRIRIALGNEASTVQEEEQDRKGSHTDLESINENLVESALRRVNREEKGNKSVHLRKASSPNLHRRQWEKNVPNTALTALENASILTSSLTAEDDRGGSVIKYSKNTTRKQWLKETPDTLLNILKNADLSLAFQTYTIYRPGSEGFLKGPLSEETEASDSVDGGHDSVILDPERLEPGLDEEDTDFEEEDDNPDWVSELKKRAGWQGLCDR
EPHA3, sequence (P29320 whole entry): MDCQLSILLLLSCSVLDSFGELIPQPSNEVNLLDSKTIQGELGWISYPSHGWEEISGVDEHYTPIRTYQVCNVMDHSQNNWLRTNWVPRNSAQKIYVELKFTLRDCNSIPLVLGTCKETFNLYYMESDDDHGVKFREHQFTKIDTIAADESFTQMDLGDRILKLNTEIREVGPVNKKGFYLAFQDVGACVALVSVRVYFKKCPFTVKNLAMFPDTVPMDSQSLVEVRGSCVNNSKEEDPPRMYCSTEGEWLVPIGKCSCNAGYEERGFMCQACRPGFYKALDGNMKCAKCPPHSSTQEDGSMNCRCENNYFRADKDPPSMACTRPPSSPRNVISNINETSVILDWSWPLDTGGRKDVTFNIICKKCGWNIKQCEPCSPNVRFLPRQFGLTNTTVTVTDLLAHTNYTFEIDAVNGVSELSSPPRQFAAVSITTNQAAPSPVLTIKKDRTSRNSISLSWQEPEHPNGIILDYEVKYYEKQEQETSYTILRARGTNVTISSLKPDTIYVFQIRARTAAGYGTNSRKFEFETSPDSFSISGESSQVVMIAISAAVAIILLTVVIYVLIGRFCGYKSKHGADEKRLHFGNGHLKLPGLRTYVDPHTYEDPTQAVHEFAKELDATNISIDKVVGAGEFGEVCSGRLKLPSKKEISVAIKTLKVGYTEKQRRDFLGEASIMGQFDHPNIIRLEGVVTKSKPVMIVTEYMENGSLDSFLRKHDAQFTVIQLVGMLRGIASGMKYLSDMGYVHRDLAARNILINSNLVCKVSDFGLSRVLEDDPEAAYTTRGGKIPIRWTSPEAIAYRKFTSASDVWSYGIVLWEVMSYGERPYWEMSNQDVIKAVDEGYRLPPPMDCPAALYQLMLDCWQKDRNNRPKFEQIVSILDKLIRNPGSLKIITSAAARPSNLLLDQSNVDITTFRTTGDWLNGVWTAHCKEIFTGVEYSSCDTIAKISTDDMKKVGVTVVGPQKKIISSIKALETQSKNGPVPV
PDXK, sequence (O00764 whole entry): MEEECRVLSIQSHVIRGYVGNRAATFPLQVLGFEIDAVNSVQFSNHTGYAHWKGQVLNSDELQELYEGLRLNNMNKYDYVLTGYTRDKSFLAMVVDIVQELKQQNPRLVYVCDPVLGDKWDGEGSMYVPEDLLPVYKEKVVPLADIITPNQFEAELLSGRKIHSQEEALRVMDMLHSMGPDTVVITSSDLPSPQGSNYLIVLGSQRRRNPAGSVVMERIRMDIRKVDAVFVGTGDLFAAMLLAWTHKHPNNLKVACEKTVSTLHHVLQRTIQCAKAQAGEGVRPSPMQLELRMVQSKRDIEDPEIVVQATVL
CDK9, sequence (P50750 whole entry): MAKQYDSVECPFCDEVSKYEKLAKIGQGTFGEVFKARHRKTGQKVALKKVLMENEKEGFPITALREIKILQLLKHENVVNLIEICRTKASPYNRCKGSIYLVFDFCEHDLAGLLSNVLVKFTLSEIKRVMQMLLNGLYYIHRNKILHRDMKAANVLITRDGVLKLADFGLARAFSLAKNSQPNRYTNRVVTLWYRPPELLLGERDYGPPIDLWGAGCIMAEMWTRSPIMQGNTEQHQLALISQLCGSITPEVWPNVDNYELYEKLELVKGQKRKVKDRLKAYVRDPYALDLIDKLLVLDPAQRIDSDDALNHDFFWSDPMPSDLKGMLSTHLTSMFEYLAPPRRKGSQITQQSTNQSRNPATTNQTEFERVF

A word on the IC50: it is the point on the concentration scale where inhibition reaches its midpoint. As for `COc1ccccc1-c1n[nH]c2nc(N[C@H]3CC[C@H](NS(=O)(=O)CCC(F)(F)F)CC3)nc(OC)c12` [compound 31, 3,3,3-Trifluoro-N-(trans-4-((4-methoxy-3-(2-methoxyphenyl)-1H-pyrazolo[3,4-d]pyrimidin-6-yl)amino)cyclohexyl)propane-1-sulfonamide], the IC50 in test [1] is ≥ 20 µM; in test [2], ≥ 20 µM; in test [3], ≥ 20 µM; in test [4], ≥ 20 µM; in test [5], 3.6 µM; in [6], ≥ 20 µM. Moreover, the 50% inhibitory concentration (IC50) in test [7] is ≥ 20 µM; in test [8], 9.9 µM; in test [9], ≥ 20 µM; in test [10] it was ≥ 20 µM; in test [11], ≥ 20 µM; in test [12], ≥ 20 µM. For the same compound, the IC50 in test [13], in test [14], in [15], in [16], in test [17] and in test [18] was ≥ 20 µM throughout. Further, the half-inhibitory concentration (IC50) in [19], in test [20] and in test [21] was ≥ 20 µM each time.
